Assay results published in ChEMBL document CHEMBL2073797, “Characterization of an organic anion-transporting polypeptide (OATP-B) in human placenta” (J Clin Endocrinol Metab, 2002).
Structures can show the parent of a compound that is named as a salt.

Molecular target: T1, Solute carrier organic anion transporter family member 2B1 (OATP2B1) (Homo sapiens, UniProt O94956)
T1 sequence (O94956 whole entry): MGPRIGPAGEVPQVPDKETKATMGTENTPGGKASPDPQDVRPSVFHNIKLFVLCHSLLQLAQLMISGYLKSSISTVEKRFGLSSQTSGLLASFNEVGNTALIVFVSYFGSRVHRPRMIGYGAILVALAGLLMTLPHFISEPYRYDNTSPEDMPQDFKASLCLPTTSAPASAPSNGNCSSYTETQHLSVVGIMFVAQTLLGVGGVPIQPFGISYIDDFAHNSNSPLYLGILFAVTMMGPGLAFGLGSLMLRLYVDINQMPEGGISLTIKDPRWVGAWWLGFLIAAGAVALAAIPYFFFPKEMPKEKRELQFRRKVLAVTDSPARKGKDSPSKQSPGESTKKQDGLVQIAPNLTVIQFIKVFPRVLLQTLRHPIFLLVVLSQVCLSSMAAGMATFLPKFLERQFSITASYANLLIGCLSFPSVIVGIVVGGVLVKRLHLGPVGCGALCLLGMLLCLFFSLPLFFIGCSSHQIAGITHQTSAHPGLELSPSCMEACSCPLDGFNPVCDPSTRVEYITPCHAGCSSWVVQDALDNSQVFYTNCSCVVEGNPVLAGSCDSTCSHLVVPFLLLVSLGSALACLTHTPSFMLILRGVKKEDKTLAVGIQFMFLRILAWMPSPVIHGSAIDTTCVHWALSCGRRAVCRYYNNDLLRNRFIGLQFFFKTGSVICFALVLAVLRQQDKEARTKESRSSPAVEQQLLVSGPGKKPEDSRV
Experiment: TP_TRANSPORTER: inhibition of Estrone-3-sulfate uptake (Estrone-3-sulfate: 1 uM, Pregnenolone sulfate: 100 uM) in Xenopus laevis oocytes
Format: functional, cell-based, Oocyte
Details: Xenopus laevis oocytes expressing OATP2B1 (SLCO2B1), probe Estrone-3-sulfate (1 uM)

`CC(=O)[C@H]1CC[C@H]2[C@@H]3CC=C4C[C@@H](OS(=O)(=O)O)CC[C@]4(C)[C@H]3CC[C@]12C` [PREGNENOLONE SULFATE] was tested. Which inhibition at 100 µM did it give?
The inhibition at 100 µM was 83%.
